Where “and” joins values, the source holds several entries; their conditions need not be identical. Equal entries are not always repeated.
Experiments:
[1] = Vitamin B12 absorption from serum vitamin B12, total TC and holo-TC before and after oral vitamin B12, healthy subjects; assay type: in vivo, human; conditions: for Holo-TC, median: serum
From the text: (§1) The subjects participating in the study were 31 healthy subjects recruited in October 2002. None of them suffered from known disorders related to vitamin B12 deficiency. Persons with chronic systemic disease, persons taking any kind of medical treatment, including vitamin tablets within the past week and persons not being able to give written informed consent were excluded. The age of the healthy subjects ranged from to 25 to 57 (mean 40) years. There were 9 men and 22 women. We further included seven patients (age 22-39 years, five men and two women) who had been referred to the out-patient clinic of internal medicine department during 2003 because vitamin B12 malabsorption was suspected. Three of the seven patients have previously been diagnosed as Crohn's disease. The diagnosis of the remaining four patients was not clear. Written informed consent was obtained from all subjects, and the Research Ethics Committee of Aarhus County approved the study protocol (2002.0224).
The absorption of vitamin B12 was evaluated from analysis of serum vitamin B12, total TC, and holo-TC on samples obtained before and after oral administration of vitamin B12.
(§2) In healthy subjects samples were taken at 8:00 a.m. on the day before vitamin B12 intake (−1) and on day 0, 1, 2, and 6. After the blood sample was removed on day 0, an oral dose of 9 μg vitamin B12 (Natur Drogeriet A/S, Hoerning, Denmark) was given three times, with 6 h between the doses (8 a.m., 2 p.m., and 8 p.m. (time points were allowed to deviate ±45 min). One healthy subject was unavailable for delivering a blood sample on day 6. The absorption of vitamin B12 in seven patients was evaluated by the Schilling test I and by the design mentioned above except that the blood samples were obtained only on day 0 and day 1. The Schilling test I was performed after our alternative approach.
The vitamin B12 tablets were given with either water or orange juice. The subjects were allowed to have a light breakfast 30 to 60 min before blood sampling, not including any diary products, but were otherwise allowed to eat their normal diet. The blood samples were centrifuged within 60 minutes and were stored at −80° C. until further processed.
Serum vitamin B12 was determined by a commercial method (Bayer corporation, NY) on a Centaur equipment (analytical imprecision<10%). Serum total TC and holo-TC were measured by ELISA as recently described (Nexø et al., 2000; 2002), but modified to allow the use of an automated ELISA analyser (BEP-2000, Dade Behring, Germany). The following modification was performed; all incubations were performed at 37° C. The analytical imprecision was 7% for total TC (mean=934 pmol/L, n=91) and 8% for holo-TC (mean=38 pmol/L, n=41). The controls were run over 12 months for total TC and 6 months for holo-TC. The reference interval was established from analysing 161 samples obtained from healthy blood donors (age interval; 21-65). The reference interval was 700-1400 pmol/L for total TC, ≧50 pmol/L for holo-TC and ≧0.05 for TC saturation. Haematological parameters were analysed on the Coulter Counter (Beckman Coulter CA). Plasma creatinine was measured using the Jaffe method and a Roche Cobas integra 700 autoanalyzer (analytical imprecision <3%).
Alterations (increase or decrease) in parameters as a function of time were analysed by comparing the changes obtained on the same individuals relative to baseline (day 0) with the theoretical median “0” assigned for day 0. […] P-values <5% were regarded as statistically significant. Data were analysed using SPSS10.0 (SPSS Inc.) and the GraphPad (Prism2) software.

[2] = Vitamin B12 absorption from serum holo-TC and TC saturation before and after oral vitamin B12, patients with suspected malabsorption; assay type: in vivo, human; conditions: individual patients with Crohn's disease, day 1-day 0, oral 3 times 9 μg
From the text: as §1, with “The diagnosis of the remaining four patients was not clear. Written informed consent was obtained from all subjects, and the Research Ethics Committee of Aarhus County approved the study protocol (2002.0224).” left out
The absorption of vitamin B12 was evaluated from analysis of serum vitamin B12, total TC, and holo-TC on samples obtained before and after oral administration of vitamin B12. […]
Serum vitamin B12 was determined by a commercial method (Bayer corporation, NY) on a Centaur equipment (analytical imprecision<10%). Serum total TC and holo-TC were measured by ELISA as recently described (Nexø et al., 2000; 2002), but modified to allow the use of an automated ELISA analyser (BEP-2000, Dade Behring, Germany). […] Haematological parameters were analysed on the Coulter Counter (Beckman Coulter CA). […]

[3] = Schilling test I (urinary excretion of radioactive vitamin B12 over 24 hours); assay type: in vivo, human; conditions: individual patients with Crohn's disease; 1 μg oral Co-57 tagged vitamin B12, 24 hour urine; normal 10-40%
Description: as §2
The Schilling test I was performed as described previously (Chanarin, 1979). Briefly, a fasting patient is given a 1 μg oral dose of vitamin B12, which is tagged with radioactive cobalt (Co-57). Two hours after the oral dose the patient is then injected intramuscularly with 1000 μg of non-labeled vitamin B12. A 24 hour urine collection is initiated. The percentage of the administered dose excreted in the urine over 24 hours is then determined. Urinary excretion of 10-40% of the administered dose is considered normal.

[4] = oral dose; cited from earlier work
[5] = DAY 1 after oral 3 times 9 μg vitamin B12, 31 healthy subjects
[6] = DAY 2 after oral 3 times 9 μg vitamin B12, 31 healthy subjects
[7] = DAY 6 after oral 3 times 9 μg vitamin B12, 31 healthy subjects
[8] = control subjects after omitting outliers (n=2)
[9] = one day after oral dose of three times 9 μg, healthy subjects (discussion)
[10] = relative to baseline (day 0), oral 3 times 9 μg, healthy subjects
[11] = relative to baseline (day 0), oral 3 times 9 μg, n=31 healthy subjects

- Serum vitamin B12, median [1, 5]: 279 pmol/L
- TC saturation (holo-TC/total-TC), median [1, 5]: 0.13 fraction
- Holo-TC, median [1, 5]: 118 pmol/L
- Serum vitamin B12, median [1, 6]: 253 pmol/L
- TC saturation (holo-TC/total-TC), median [1, 6]: 0.11 fraction
- Holo-TC, median [1, 6]: 87 pmol/L
- Serum vitamin B12, median [1, 7]: 260 pmol/L
- TC saturation (holo-TC/total-TC), median [1, 7]: 0.09 fraction
- Holo-TC, median [1, 7]: 80 pmol/L
- Minimum increase for TC saturation (day 1-day 0) [1, 8]: 0.02
- Minimum increase for holo-TC (day 1-day 0) [1, 8]: 15 pmol/L
- Increase of TC saturation, median value [1, 9]: around 50%
- Increase of holo TC, median value [1, 9]: around 50%
- Absolute increase in serum vitamin B12, median (range) [1, 10]: 36 (−27-290) pmol/L
- Percentage increase in serum vitamin B12, median (range) [1, 10]: 14 (−8-+51) % and 14%
- Maximal absolute increase in TC saturation, median (range) [1, 11]: 0.04 (0-0.23) fraction
- Maximal absolute increase in holo-TC, median (range) [1, 11]: 34 (0-149) pmol/L
- Maximal percentage increase in TC saturation, median (range) [1, 11]: 52 (−2-+128) %
- Maximal percentage increase in holo-TC, median (range) [1, 11]: 39 (0-+108) %
- Increase in TC saturation after vitamin B12 intake [2]: 0.004 and 0.01 (2×)
- Increase in holo-TC after vitamin B12 intake [2]: 3 pmol/L and 7 pmol/L and 14 pmol/L
- Schilling test I, percentage of vitamin B12 excreted in the urine [3]: 2% and 10% and 15%
Substance: cobalamin [vitamin B12]
- Refractory phase with less absorption after ingestion of a dose [4]: about 3 hours

Source: patent US20060166271A1, “Non-radioactive schilling test” (priority 2003, published 2006)
